Test results as given in article PMC7582737, “Melanocortin Receptor 4 (MC4R) Signaling System in Nile Tilapia” (International Journal of Molecular Sciences, 2020).

Tests used:
MC4R = test system: MC4R; design: method as in PMID 24085819, PMID 31398355, PMID 31299224, PMID 32922362; settings: mammalian peptides; cited from earlier work
tilapia MC4R + MRAP2b = settings: HEK293 cells; cited from earlier work
From the text: The presence of all MC4R signaling components in tilapia led us to further examine their interaction in vitro. […] Our finding partly agrees with recent findings in spotted gar, tilapia, topmouth culter, and zebrafish, showing that MC4R could be activated by mam ...

goldfish = settings: cited from earlier work
From the text: In the brain, all genes were detected to be highly or moderately expressed. This finding is consistent with previous reports in teleosts, such as zebrafish and medaka, in which all the genes are expressed in the brain as detected by qRT-PCR assays.

rainbow trout = settings: cited from earlier work
zebrafish = settings: ip/icv injection of MC4R agonist; cited from earlier work
[1] = target: tilapia melanocortin receptor 4 (MC4R), N-terminally 3xFlag-tagged (Nile tilapia (Oreochromis niloticus))
[2] = target: tilapia melanocortin receptor 4 (MC4R), N-terminally 3xFlag-tagged (Nile tilapia (Oreochromis niloticus)); remark: listed apart in the source
[3] = ip/icv injection of MC4R agonist

| Molecule | activation of MC4R, relative potency (in words) (MC4R) | EC50 of activating the cAMP/PKA signaling pathway (pGL3-CRE-luciferase reporter) in CHO cells expressing tilapia MC4R in the presence of MRAP2b [2] | EC50 of activating the cAMP/PKA signaling pathway (pGL3-CRE-luciferase reporter) in CHO cells expressing tilapia MC4R, without MRAP2b [2] | also measured |
| --- | --- | --- | --- | --- |
| ACTH1-24: mammalian ACTH1-24 (cited) | with similar potencies |  |  |  |
| ACTH1-39 | with similar potencies |  |  | effect of MRAP2b on EC50 value in activating tilapia MC4R (tilapia MC4R + MRAP2b): cannot significantly alter the EC50 value |
| HS024 |  |  |  | effect on food intake, goldfish (goldfish; injection of MC4R antagonist): stimulate food intake; effect on food intake, rainbow trout (rainbow trout; injection of MC4R antagonist): stimulate food intake |
| MTII |  |  |  | effect on feeding, goldfish (goldfish; [3]): reduce the feeding; effect on feeding, rainbow trouts (rainbow trout; [3]): reduce the feeding; effect on feeding, zebrafish (zebrafish): reduce the feeding |
| NDP-α-MSH | with similar potencies |  |  |  |
| tilapia melanocortin-2 receptor accessory protein 2b (MRAP2b), N-terminally Myc-tagged (natural protein) |  |  |  | sensitivity and selectivity of MC4R for ACTH(1-40) with MRAP2b co-expressed, against MC4R alone (EC50 0.246 nM vs. 0.032 nM; pGL3-CRE-luciferase reporter, CHO cells) [1]: 8 fold |
| DGSYKMKHFRWSGPPAS [tilapia β-MSH (derived from the POMCa1 precursor)] |  | 0.572 nM | 0.421 nM |  |
| Ac-SYSMEHFRWGKPV-NH2 [tilapia α-MSH (acetyl-α-MSH with an amidated C-terminus; derived from the POMCa1 precursor)] |  | 0.786 nM | 0.955 nM |  |
| SYSMEHFRWGKPVGRKRRPVKVYTSNGVAEESAEVFPEEM [tilapia ACTH(1-40) (derived from the POMCa1 precursor)] |  | 32 pM | 0.246 nM |  |
